Results: US9434711B2 (Janssen Pharmaceutica, NV, priority 2007, dated 2016)
Like-named read-outs stand apart in the source and are kept apart here. One block for each compound: values may come before it.

Target: canine TRPM8 (Canis lupus familiaris, UniProt Q1A7N1)
Assay: In Vitro Canine TRPM8 Functional Assay (Ca2+ fluorescence, icilin activation)
Assay type: cell-based
Conditions: for inhibition at 0.2 µM: read-out: % Inh @ 0.2; for IC50: read-out: IC50; for % Inh @ 0.5 (μM): compound at 0.5 μM
Outline: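 HEK293 cells stably expressing canine TRPM8 were loaded with Calcium 3 dye (35 min at 37 °C, then 25 min at room temperature). Compound was added and Ca2+ fluorescence was read for 5 min before icilin at a concentration giving about 80% maximal response. EC50/IC50 came from eight-point dose-response curves, quadruplicate wells.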

[1] = 0.2 μM compound, HEK293 cells stably expressing canine TRPM8, icilin activation
[2] = compound at 0.2 μM, canine TRPM8, icilin activation
[3] = HEK293 cells stably expressing canine TRPM8, icilin activation, average of two or more determinations
[4] = HEK293 cells stably expressing canine TRPM8, icilin activation, eight-point dose-response
[5] = canine TRPM8, icilin activation

Chain of canine TRPM8 (Q1A7N1 1-1104): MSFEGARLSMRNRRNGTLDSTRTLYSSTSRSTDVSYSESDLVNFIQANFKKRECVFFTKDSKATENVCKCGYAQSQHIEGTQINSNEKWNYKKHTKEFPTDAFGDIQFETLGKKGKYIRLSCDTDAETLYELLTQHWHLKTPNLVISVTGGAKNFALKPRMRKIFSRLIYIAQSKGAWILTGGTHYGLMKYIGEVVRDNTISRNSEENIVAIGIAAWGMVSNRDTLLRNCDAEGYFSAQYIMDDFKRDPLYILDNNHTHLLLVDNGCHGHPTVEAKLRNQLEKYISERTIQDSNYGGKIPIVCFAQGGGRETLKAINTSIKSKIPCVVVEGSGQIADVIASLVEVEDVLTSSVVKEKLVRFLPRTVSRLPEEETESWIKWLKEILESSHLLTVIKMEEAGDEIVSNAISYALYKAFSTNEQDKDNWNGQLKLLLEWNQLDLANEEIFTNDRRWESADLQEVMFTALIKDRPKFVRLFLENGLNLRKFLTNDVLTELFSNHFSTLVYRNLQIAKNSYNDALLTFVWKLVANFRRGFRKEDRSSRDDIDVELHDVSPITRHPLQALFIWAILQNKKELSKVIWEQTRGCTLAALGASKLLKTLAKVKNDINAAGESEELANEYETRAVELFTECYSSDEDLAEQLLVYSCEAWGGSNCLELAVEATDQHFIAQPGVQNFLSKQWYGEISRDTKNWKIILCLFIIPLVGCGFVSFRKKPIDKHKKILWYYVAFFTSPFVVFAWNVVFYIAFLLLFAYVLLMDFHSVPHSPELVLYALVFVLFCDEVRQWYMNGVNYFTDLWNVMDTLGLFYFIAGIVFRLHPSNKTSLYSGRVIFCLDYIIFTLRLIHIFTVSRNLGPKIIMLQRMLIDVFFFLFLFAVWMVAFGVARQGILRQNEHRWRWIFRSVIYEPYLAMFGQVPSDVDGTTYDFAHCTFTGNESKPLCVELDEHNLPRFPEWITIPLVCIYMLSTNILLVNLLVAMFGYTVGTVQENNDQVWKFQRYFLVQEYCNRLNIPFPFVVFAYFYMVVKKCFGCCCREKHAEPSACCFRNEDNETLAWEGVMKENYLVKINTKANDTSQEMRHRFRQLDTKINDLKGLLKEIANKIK

- inhibition at 0.2 µM [1]: 28%
Compound: Cc1c(N(Cc2ccccc2)S(=O)(=O)c2ccc(OCc3ccccc3)c(F)c2)sc2ccccc12 [Compound 846, N-(Benzyl)-4-benzyloxy-3-fluoro-N-(3-methyl-benzo[b]thiophen-2-yl)-benzenesulfonamide]

- inhibition at 0.2 µM [1]: 33%
Compound: CCS(=O)(=O)N(Cc1ccnc(F)c1)c1cc2ccccc2s1 [Compound 847, N-(Benzo[b]thiophen-2-yl)-N-(2-fluoro-pyridin-4-ylmethyl)-ethane-sulfonamide]

- inhibition at 0.2 µM [1]: 68%
Compound: CCS(=O)(=O)N(Cc1ccnc(F)c1)c1sc2ccccc2c1C(C)=O [Compound 848, N-(3-Acetyl-benzo[b]thiophen-2-yl)-N-(2-fluoro-pyridin-4-ylmethyl)-ethansulfonamide]

- inhibition at 0.2 µM [1]: 25%
Compound: CCCCNS(=O)(=O)N(CCCC)c1sc2ccccc2c1Br [Compound 849, N-(3-Bromo-benzo[b]thiophen-2-yl)-N,N′-bis-butyl-sulfamide]

- inhibition at 0.2 µM [1]: 28%
Compound: CCCCNS(=O)(=O)N(CCCC)c1cc2ccccc2s1 [Compound 850, N-Benzo[b]thiophen-2-yl-N,N′-bis-butyl-sulfamide]

- inhibition at 0.2 µM [2]: 42%
Compound: O=C(Nc1ccc(S(=O)(=O)N(CCC2CC2)c2sc3ccccc3c2Cl)cc1)C(F)(F)F [Cpd 694, N-(3-Chloro-benzo[b]thiophen-2-yl)-N-(2-cyclopropyl-ethyl)-4-trifluoroacetamido-benzenesulfonamide]

- % Inh @ 0.2 (μM) [1]: 102%
- IC50 [3]: 28 nM
Compound: O=S(=O)(c1ccccc1)N(CCCF)c1sc2ccccc2c1CO [Cpd 820]

Compound: N-(3,4-Difluoro-benzyl)-N-thieno[3,2-b]pyridin-2-yl-benzenesulfonamide [Compound 146]
- IC50 [4]: 48 nM
- % Inh @ 0.5 (μM) [5]: 97%

Compound: N-(3-Bromo-thieno[3,2-b]pyridin-2-yl)-N-(3,4-difluoro-benzyl)-benzenesulfonamide and N-(3-chloro-thieno[3,2-b]pyridin-2-yl)-N-(3,4-difluoro-benzyl)-benzenesulfonamide [Compound 145]
- IC50 [4]: 14.1 nM
- % Inh @ 0.5 (μM) [5]: 100%

Compound: N-(3-Chloro-benzo[b]thiophen-2-yl)-N-(4,4,4-trifluoro-butyl)-4-(5-oxo-4,5-dihydro-[1,2,4]oxadiazol-3-yl)-benzenesulfonamide [Compound 515]
- % Inh @ 0.2 (μM) [2]: 49%

Compound: N-(3-Cyclopentyl-benzo[b]thiophen-2-yl)-N-(4-fluoro-3-trifluoromethyl-benzyl)-4-carbomethoxy-benzenesulfonamide [Compound 501]
- % Inh @ 0.2 (μM) [2]: 31%

Compound: N-(3-Methyl-benzo[b]thiophen-2-yl)-N-(4-fluoro-3-trifluoromethyl-benzyl)-4-pyrazol-1-yl-benzenesulfonamide [Compound 332]
- IC50 [4]: 7 nM
- % Inh @ 0.2 (μM) [2]: 100%

- IC50 [4]: 97 nM
- % Inh @ 0.2 (μM) [2]: 85%
Compound: N-(3-Methyl-benzo[b]thiophen-2-yl)-N-(4-fluoro-3-trifluoromethyl-benzyl)-4-thiomethyl-pyridin-3-yl-sulfonamide [Compound 378]

Compound: N-(3-Methyl-benzo[b]thiophen-2-yl)-N-(5,5,5-trifluoro-pentyl)-4-(5-oxo-4,5-dihydro-[1,2,4]oxadiazol-3-yl)-pyrid-3-ylsulfonamide [Compound 809]
- % Inh @ 0.2 (μM) [1]: 103%
- IC50 [3]: 6.9 nM

Compound: N-(3-Methyl-benzo[b]thiophen-2-yl)-N-(5,5,5-trifluoro-pentyl)-4-thiomorpholin-4-yl-benzenesulfonamide [Compound 749]
- % Inh @ 0.2 (μM) [2]: 64%

Compound: N-(3-Methyl-benzo[b]thiophen-2-yl)-N-(cyclopropyl-ethyl)-4-morpholino-3-pyridyl-sulfonamide [Compound 798]
- % Inh @ 0.2 (μM) [1]: 102%
- IC50 [3]: 35.9 nM

Compound: N-(Benzo[b]thiophen-2-yl)-N-(3,3,3-trifluoro-propyl)-4-(5-oxo-4,5-dihydro-[1,2,4]oxadiazol-3-yl)-benzenesulfonamide [Compound 597]
- % Inh @ 0.2 (μM) [2]: 25%
